# Calls of active or inactive are those of the source. The calls are words filed in the database; no cut-off is given here.
# Assays:
# Escherichia coli = test: Antimicrobial activity against Escherichia coli Nissle1917 assessed as inhibition of microbial growth incubated at 30 degC for 24 hrs by paper disk method; format: functional, organism-based
# Saccharomyces cerevisiae = test: Antimicrobial activity against Saccharomyces cerevisiae assessed as inhibition of microbial growth at 50 ug/disk incubated at 30 degC for 24 hrs by paper disk method; format: functional
# Bacillus subtilis = test: Antimicrobial activity against Bacillus subtilis NCIB3610 assessed as inhibition of microbial growth at 50 ug/disk incubated at 30 degC for 24 hrs by paper disk method; format: functional; conditions: NCIB3610, 24 h, read-out: IZ
Compound,growth inhibition (GI) (Escherichia coli),growth inhibition (GI) (Saccharomyces cerevisiae),zone of inhibition at 50 µg/disc (Bacillus subtilis) [mm]
CC(C)c1c(O)cc(/C=C/c2ccccc2)cc1O,inactive,Active,
CC(C)C1=C(O)C(=O)C(/C=C/c2ccccc2)=C(N)C1=O,inactive,,4
